# Experimental data reported in ChEMBL document CHEMBL1157748, “4-hydroxy-1,2,5-oxadiazol-3-yl moiety as bioisoster of the carboxy function. Synthesis, ionization constants, and molecular pharmacological characterization at ionotropic glutamate receptors of compounds related to glutamate and its homologues” (J Med Chem, 2010).
# Calls of active or inactive are those of the source. No cut-off for these calls is given here.
# How the values were obtained:
# [1] = Displacement of [3H]AMPA from AMPA receptor in Sprague-Dawley rat brain membranes; format: cell membranes, Membrane
# Glutamate NMDA receptor [2] = assay: Displacement of [3H]CPP from NMDA receptor in Sprague-Dawley rat brain membranes; format: cell membranes, Membrane
# Glutamate NMDA receptor [3] = assay: Displacement of [3H]CGP39653 from NMDA receptor in Sprague-Dawley rat brain membranes; format: cell membranes, Membrane
# [4] = biological target: T1, Glutamate NMDA receptor; Grin1/Grin2a (Rattus norvegicus) (UniProt P35439+Q00959); assay: Agonist activity at rat NR1/NR2A receptor expressed in BHK21 cells assessed as increase in intracellular calcium levels by FLIPR assay; details: BHK-21
# [5] = biological target: T1, Glutamate NMDA receptor; Grin1/Grin2a (Rattus norvegicus); assay: Agonist activity at rat NR1/NR2A receptor expressed in BHK21 cells assessed as change in intracellular calcium levels by FLIPR assay relative to (S)-Glu; format: functional, cell-based; details: BHK-21
# Glutamate receptor 2 [6] = biological target: Glutamate receptor 2 (Rattus norvegicus, UniProt P19491); assay: Displacement of [3H]AMPA from rat iGluR2 receptor expressed in Sf9 cells baculovirus system after 1 to 2 hrs by liquid scintillation counting
# [7] = biological target: Glutamate receptor ionotropic, kainate 2 (Rattus norvegicus, UniProt P42260); assay: Displacement of [3H]SYM2081 from rat iGluR6 receptor expressed in Sf9 cells baculovirus system after 1 to 2 hrs by liquid scintillation counting
# [8] = biological target: Glutamate receptor ionotropic, kainate 3 (Rattus norvegicus, UniProt P42264); assay: Displacement of [3H]SYM2081 from rat iGluR7 receptor expressed in Sf9 cells baculovirus system after 1 to 2 hrs by liquid scintillation counting
# Glutamate receptor 2 [9] = biological target: Glutamate receptor 2 (Homo sapiens, UniProt P42262); assay: Activity at recombinant iGluR2 receptor expressed in Xenopus laevis oocytes using holding potential of -15 to -20 mV by TEVC electrophysiology; format: cell-based, Oocyte
# [10] = biological target: T2, Glutamate NMDA receptor; Grin1/Grin2a (Rattus norvegicus, UniProt P35439+Q00959); assay: Agonist activity at rat NR1/NR2A receptor expressed in BHK21 cells assessed as change in intracellular calcium levels by FLIPR assay; format: functional, cell-based, BHK-21
# [11] = biological target: Glutamate receptor ionotropic, kainate 1 (Rattus norvegicus, UniProt P22756); assay: biochemical
# Description: Displacement of [3H]SYM2081 from rat iGluR5 receptor expressed in Sf9 cells baculovirus system after 1 to 2 hrs by liquid scintillation counting
# [12] = biological target: T2, Glutamate NMDA receptor; Grin1/Grin2a; assay: Antagonist activity at rat NR1/NR2A receptor expressed in BHK21 cells assessed as inhibition of (S)-Glu-induced intracellular calcium levels by FLIPR assay; format: functional, cell-based, BHK-21
# [13] = biological target: T2, Glutamate NMDA receptor; Grin1/Grin2a; assay: Agonist activity at rat NR1/NR2A receptor expressed in BHK21 cells assessed as change in intracellular calcium levels at 1000 uM by FLIPR assay; format: functional, cell-based; details: bhk-21
# Glutamate receptor ionotropic, kainate 1, sequence (P22756 whole entry): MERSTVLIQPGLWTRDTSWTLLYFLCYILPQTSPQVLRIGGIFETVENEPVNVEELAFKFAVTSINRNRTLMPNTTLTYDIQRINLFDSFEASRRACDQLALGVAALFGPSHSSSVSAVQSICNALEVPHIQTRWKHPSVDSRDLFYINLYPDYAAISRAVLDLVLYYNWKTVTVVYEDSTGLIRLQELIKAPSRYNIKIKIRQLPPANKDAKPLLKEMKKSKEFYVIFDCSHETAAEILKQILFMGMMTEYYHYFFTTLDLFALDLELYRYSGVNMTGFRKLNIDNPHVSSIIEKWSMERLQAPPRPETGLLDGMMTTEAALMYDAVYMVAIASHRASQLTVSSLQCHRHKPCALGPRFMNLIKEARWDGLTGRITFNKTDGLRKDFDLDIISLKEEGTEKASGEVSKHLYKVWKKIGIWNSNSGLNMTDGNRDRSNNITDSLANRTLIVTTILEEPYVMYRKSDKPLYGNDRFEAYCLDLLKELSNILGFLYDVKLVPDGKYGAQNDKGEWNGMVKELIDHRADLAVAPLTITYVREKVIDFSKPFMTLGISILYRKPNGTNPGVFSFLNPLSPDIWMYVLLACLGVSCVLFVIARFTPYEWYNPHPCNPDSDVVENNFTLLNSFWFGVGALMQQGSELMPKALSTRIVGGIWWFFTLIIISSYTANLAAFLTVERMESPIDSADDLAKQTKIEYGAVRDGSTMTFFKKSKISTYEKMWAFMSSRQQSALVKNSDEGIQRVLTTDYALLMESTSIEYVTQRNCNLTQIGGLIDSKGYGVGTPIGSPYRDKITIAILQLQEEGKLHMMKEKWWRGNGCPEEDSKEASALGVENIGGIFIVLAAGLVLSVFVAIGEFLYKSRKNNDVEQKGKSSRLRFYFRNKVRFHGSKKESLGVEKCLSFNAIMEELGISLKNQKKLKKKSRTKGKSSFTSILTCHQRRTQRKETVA
# Glutamate receptor 2 (Homo sapiens, UniProt P42262), sequence (P42262 whole entry): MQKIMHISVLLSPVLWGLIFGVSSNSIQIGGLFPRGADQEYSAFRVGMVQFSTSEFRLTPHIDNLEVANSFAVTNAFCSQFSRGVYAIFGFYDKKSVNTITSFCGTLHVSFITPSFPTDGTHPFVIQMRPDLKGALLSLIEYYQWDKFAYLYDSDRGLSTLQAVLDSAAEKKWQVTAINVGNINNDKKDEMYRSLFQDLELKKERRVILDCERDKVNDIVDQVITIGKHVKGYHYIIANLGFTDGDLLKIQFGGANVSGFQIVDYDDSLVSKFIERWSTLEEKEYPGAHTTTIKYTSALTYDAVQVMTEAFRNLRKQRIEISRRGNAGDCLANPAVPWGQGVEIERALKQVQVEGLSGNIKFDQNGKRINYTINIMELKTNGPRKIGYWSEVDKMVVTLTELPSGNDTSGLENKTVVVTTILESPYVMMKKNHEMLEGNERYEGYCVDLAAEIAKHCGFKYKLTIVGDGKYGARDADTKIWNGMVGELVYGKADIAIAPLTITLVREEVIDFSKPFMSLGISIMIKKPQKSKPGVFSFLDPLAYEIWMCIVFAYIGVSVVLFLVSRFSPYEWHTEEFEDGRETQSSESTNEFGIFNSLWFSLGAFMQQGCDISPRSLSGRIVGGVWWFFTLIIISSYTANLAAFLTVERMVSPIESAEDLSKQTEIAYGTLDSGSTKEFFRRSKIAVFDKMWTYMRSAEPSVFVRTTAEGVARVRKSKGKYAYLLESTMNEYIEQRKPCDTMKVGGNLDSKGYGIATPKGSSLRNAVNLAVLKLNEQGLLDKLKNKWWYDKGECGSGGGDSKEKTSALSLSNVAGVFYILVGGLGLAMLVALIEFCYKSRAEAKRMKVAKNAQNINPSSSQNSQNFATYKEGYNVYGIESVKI
# Glutamate receptor 2 (Rattus norvegicus, UniProt P19491), sequence (P19491 whole entry): as the sequence (P42262 whole entry) above, with M191T, T291A, R764G, A852P counted along it
# Glutamate receptor ionotropic, kainate 2, sequence (P42260 whole entry): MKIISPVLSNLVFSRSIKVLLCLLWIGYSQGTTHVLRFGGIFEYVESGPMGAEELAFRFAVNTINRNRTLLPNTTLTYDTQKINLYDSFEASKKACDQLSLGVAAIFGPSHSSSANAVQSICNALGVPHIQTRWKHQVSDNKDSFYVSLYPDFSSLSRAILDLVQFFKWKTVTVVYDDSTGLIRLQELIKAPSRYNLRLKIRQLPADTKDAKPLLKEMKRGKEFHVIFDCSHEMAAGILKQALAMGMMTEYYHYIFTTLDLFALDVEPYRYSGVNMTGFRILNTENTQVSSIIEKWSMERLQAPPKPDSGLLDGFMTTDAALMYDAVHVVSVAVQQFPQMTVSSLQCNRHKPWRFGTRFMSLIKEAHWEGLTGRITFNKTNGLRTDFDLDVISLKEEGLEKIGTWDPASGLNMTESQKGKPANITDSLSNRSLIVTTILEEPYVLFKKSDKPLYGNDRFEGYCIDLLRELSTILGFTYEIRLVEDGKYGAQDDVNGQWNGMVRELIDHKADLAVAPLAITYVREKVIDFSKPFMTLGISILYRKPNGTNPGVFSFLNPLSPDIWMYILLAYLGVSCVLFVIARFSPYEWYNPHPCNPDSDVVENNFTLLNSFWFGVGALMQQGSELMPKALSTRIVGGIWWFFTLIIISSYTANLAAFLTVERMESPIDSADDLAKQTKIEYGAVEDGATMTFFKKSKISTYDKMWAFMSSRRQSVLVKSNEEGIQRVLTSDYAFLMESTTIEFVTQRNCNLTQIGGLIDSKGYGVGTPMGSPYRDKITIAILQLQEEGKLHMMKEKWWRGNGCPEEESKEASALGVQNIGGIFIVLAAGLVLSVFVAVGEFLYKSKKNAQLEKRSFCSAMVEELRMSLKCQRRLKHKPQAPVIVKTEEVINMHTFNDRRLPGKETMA
# Glutamate receptor ionotropic, kainate 3, sequence (P42264 whole entry): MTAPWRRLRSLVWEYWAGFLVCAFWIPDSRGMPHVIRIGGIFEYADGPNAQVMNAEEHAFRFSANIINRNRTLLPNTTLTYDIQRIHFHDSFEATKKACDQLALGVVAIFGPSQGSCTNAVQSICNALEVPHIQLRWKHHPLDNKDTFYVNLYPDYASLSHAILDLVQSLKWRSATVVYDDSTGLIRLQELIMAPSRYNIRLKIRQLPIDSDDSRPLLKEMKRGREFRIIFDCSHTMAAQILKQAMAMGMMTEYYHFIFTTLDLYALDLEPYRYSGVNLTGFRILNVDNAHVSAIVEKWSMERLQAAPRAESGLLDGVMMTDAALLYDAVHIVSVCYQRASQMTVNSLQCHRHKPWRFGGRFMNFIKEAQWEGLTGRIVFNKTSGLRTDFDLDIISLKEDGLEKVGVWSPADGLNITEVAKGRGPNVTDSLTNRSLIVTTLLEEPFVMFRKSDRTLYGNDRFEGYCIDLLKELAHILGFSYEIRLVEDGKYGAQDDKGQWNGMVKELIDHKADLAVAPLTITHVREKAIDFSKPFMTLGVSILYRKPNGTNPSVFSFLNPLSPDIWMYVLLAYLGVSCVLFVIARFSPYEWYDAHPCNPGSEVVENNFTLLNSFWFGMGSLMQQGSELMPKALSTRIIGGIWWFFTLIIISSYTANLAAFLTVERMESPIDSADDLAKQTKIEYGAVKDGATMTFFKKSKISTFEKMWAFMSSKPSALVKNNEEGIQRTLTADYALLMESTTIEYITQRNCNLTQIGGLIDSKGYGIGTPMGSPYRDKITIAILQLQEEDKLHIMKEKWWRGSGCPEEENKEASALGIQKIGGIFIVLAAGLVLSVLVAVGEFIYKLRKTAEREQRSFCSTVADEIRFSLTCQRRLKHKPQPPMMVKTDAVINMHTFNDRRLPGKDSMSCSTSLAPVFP
IC50 [1] [µM],Ki (Glutamate NMDA receptor [3]) [µM],pIC50 [1],Compound,other results
77,4.9,4.12,"NC(CCc1nonc1O)C(=O)O (racemic) [2-AMINO-4-(4-HYDROXY-1,2,5-OXADIAZOL-3-YL)BUTANOIC ACID (STRUCTURAL MIX)]",–
> 100,3.4,–,"NC(CCc1nonc1O)C(=O)O (single isomer, unassigned; (-)) [2-AMINO-4-(4-HYDROXY-1,2,5-OXADIAZOL-3-YL)BUTANOIC ACID (STRUCTURAL MIX)]",IC50 [12]: 49 µM
42,73,4.37,"NC(CCc1nonc1O)C(=O)O (stereo in doubt; (+)-15) [2-AMINO-4-(4-HYDROXY-1,2,5-OXADIAZOL-3-YL)BUTANOIC ACID (STRUCTURAL MIX)]",Ki (Glutamate receptor 2 [6]): 40 µM; Ki [7]: > 1000 µM; Ki [8]: 41 µM; EC50 (Glutamate receptor 2 [9]): 489 µM; EC50 [13]: Not Active; IC50 [12]: 1020 µM; Ki [11]: 53 µM
> 100,1.8,–,"NC(CCCc1nonc1O)C(=O)O (stereo in doubt; (-)-18) [2-AMINO-5-(4-HYDROXY-1,2,5-OXADIAZOL-3-YL)PENTANOIC ACID (STRUCTURAL MIX)]",IC50 [12]: 28 µM

# More lines, now with the values behind:
Compound,IC50 [1] [µM],Ki (Glutamate NMDA receptor [3]) [µM],pIC50 [1],other results
NC(Cc1nsnc1O)C(=O)O (racemic),0.12,–,–,Ki (Glutamate NMDA receptor [2]): > 100 µM
NC(C(=O)O)c1nonc1O (racemic),> 100,6.3,–,–
NC(CCCc1nonc1O)C(=O)O (racemic),–,–,–,Activity [4]: inactive
NC(CCc1nonc1O)C(=O)O (racemic),–,–,–,Activity [4]: inactive
"NC(Cc1nonc1O)C(=O)O (racemic) [2-AMINO-3-(4-HYDROXY-1,2,5-OXADIAZOL-3-YL)PROPIONIC ACID (STRUCTURAL MIX)]",0.17,16,6.76,–
"NC(CCCc1nonc1O)C(=O)O (racemic) [2-AMINO-5-(4-HYDROXY-1,2,5-OXADIAZOL-3-YL)PENTANOIC ACID (STRUCTURAL MIX)]",61,2.9,4.22,–
"Cc1onc(O)c1CC(N)C(=O)O (racemic) [(R,S)-AMPA]",0.039,–,–,–
"NC(Cc1nonc1O)C(=O)O (single isomer, unassigned; (+))",–,–,–,Imax [5]: 0.76
"NC(Cc1nonc1O)C(=O)O (single isomer, unassigned; (+)) [2-AMINO-3-(4-HYDROXY-1,2,5-OXADIAZOL-3-YL)PROPIONIC ACID (STRUCTURAL MIX)]",0.11,13,6.95,Ki (Glutamate receptor 2 [6]): 0.043 µM; Ki [7]: > 100 µM; Ki [8]: > 100 µM; EC50 (Glutamate receptor 2 [9]): 9.4 µM; EC50 [10]: 47 µM; Ki [11]: 8.1 µM
"NC(CCCc1nonc1O)C(=O)O (stereo in doubt; (+)-18) [2-AMINO-5-(4-HYDROXY-1,2,5-OXADIAZOL-3-YL)PENTANOIC ACID (STRUCTURAL MIX)]",42,22,4.37,Ki (Glutamate receptor 2 [6]): 20 µM; Ki [7]: > 1000 µM; Ki [8]: > 1000 µM; EC50 (Glutamate receptor 2 [9]): 491 µM; EC50 [13]: Not Active; IC50 [12]: 245 µM; Ki [11]: 67 µM
"NC(Cc1nonc1O)C(=O)O (stereo in doubt; (-)-10) [2-AMINO-3-(4-HYDROXY-1,2,5-OXADIAZOL-3-YL)PROPIONIC ACID (STRUCTURAL MIX)]",0.76,> 100,–,Ki (Glutamate receptor 2 [6]): 0.25 µM; Ki ([7]; sf9): > 100 µM; Ki ([8]; sf9): > 100 µM; EC50 (Glutamate receptor 2 [9]): 43 µM; EC50 [10]: > 500 µM; Ki [11]: 77 µM
C=C(C)[C@H]1CN[C@H](C(=O)O)[C@H]1CC(=O)O [KAINIC ACID],4,> 100,–,–
CN[C@H](CC(=O)O)C(=O)O [N-METHYL-D-ASPARTIC ACID (NMDA)],> 100,6.2,–,–
